Data from article PMC8767159, “Multiparameter Optimization of Trypanocidal Cruzain Inhibitors With In Vivo Activity and Favorable Pharmacokinetics” (Frontiers in Pharmacology, 2022).

How the values were obtained:
[1] = In vitro metabolic stability in mouse liver microsomes; assay type: in vitro ADME; conditions: for CLint (L/h/kg) Mouse: Table S5; for CLint_u (L/h/kg) Mouse: Table S5, CLint/fu
Procedure: (§1) Isolated mouse (BD Gentest, Bedford, MA) and human liver microsomes (XenoTech, Kansas City, KS) ([Plant, 2004]) were added at a final concentration of 0.25 mg/ml to a solution containing 40 mM dibasic potassium phosphate and 10 mM monobasic potassium phosphate. Stock solutions of compounds at 5 mM were prepared in 100% DMSO. A 50:50 quenching solution of acetonitrile (ACN) and methanol (MeOH) was prepared. An NADPH solution was prepared at 10 mM. The preparations containing the microsomes were added to each well of the incubation plate (450 µl), which was then heated to 37°C for 10 min. The compounds were added to the respective wells of the test plate (2 µl). Then, 300 µl of the microsome preparation was added to each well of the test plate. The test plate was heated under gentle rotation for 5 min at 37°C. Next, 90 µl of the mixture contained in the test plate was added to the incubation plate, making a final volume of 540 µl. Samples were collected at the following incubation times: 0, 5, 10, 15, 20, and 30 min. To the 0 min sample plate, quenching solution (180 µl), NADPH (6 µl), and the incubation plate mixture (54 µl) were added to each well. The sample plate was then sealed, homogenized, and stored at 4°C. Then, 54 µl of the NADPH solution was added to the incubation plate, which was homogenized. Before the collection of each sample at the established times, 45 µl of the quenching solution was added to each well of the corresponding sample plates. After reaching the incubation times, 60 µl of the mixture contained in the incubation plate was added to the corresponding sample plates. The sample plates were then sealed and stored at 4°C. After the collection of the last sample (30 min), all sample plates were centrifuged at 3,800 rpm for 30 min. The supernatant from each well was collected and transferred to clean plates for mass spectrometry. Five to 10 µl of each sample was injected into an AB Sciex Triple Quad 5500 LC-MS/MS instrument.
(§2) For the biotransformation experiments and analysis of metabolites in microsomes, an Ultra-High-Pressure Liquid Chromatography instrument (UHPLC, Thermo Accela, Waltham, MA) ([Spaggiari et al., 2014]) connected to an automatic sample injector and a 1250 series pump was used. The UHPLC system was connected to a Thermo Fisher (Waltham, MA) LTQ Orbitrap mass spectrometer. For all other analyses, an AB Sciex Triple Quad 5500 coupled to a UHPLC equipped with a UV 1290 diode detector (Agilent Technologies, Santa Clara, CA) and a CTC PAL self-collecting system (LEAP Technologies, Carrboro, NC) was used. Q1 MS positive ion mode (300–500 Da) was used to detect the ions of the parent compounds. The UV detector was operated in spectral mode (250–280 nm). A Hypersil Gold C18 (2.1 mm × 100 mm, 1.9 µm, Thermo Fisher) HPLC column was used. The mobile phases were solvent A (0.1% formic acid in water) and solvent B (0.1% formic acid in ACN). The flow was adjusted to 0.55 ml/min, and the injection volume was adjusted to […]. The gradient started with 1% solvent B for 0.4 min, reached 40% (solvent B) in 2.3 min and 95% (solvent B) in 0.67 min, was maintained for 0.5 min, and returned to the initial condition of 1%. This condition was maintained for 1 min before injection of the next sample. The peak area ratio (peak area of the test compounds/peak area of the control compounds) was converted to the percentage of remaining compound, with the 0 min time point ratio set to 100%. T½ and CLint were calculated from the percentage of remaining compound versus the incubation time. From the resulting function, the slope (k) was determined. The equations T1/2 (min) = ln(2)/k and CLint in vitro (μL/min/mg) = k*1000/0.25 were used to determine T½ and CLint.

[2] = In vitro metabolic stability in human liver microsomes; assay type: in vitro ADME; conditions: for CLint_u (L/h/kg) Human: Table S5, CLint/fu; for CLint (L/h/kg) Human: Table S5
Procedure: as §1, §2

[3] = Fraction unbound by equilibrium dialysis; assay type: in vitro ADME; conditions: Table S5; fraction unbound
Procedure: The fraction unbound (fu) ([Masimirembwa et al., 2003]) of the test compounds was determined after incubation with different media, namely, plasma, microsomes, and buffer with 10% FCS. Equilibrium dialysis was performed in a 96-well plate (HT-Dialysis, Gales Ferry, CT) in which each well was divided by a semipermeable membrane (12–14 kDa cutoff). The test compounds diluted in either plasma, microsome suspension, or buffer were added to one side of the membrane. Potassium phosphate buffer (50 mM, pH 7.4) was added to the other side of the membrane. A standard curve was used to calculate the compound concentration (fu) on each side of the membrane. Stock solutions of each compound were prepared in 100% DMSO to obtain a final concentration of 1 mM. The following compound concentrations were used: 1, 2, 20, 200, 2,000 and 5,000 nM. To 500 μl of medium, 0.5 μl of the compound stock solution was added, and this was applied to one side of the well. Each compound was evaluated in triplicate. Next, the plate was assembled, sealed, and incubated at 37°C under rotation (150 rpm) for 4 h. After the incubation period, the plates were subjected to LC-MS/MS.

[4] = target: T1, cruzain (Trypanosoma cruzi, UniProt P25779); experiment: Cruzain enzyme inhibition assay (cleavage of fluorogenic substrate Z-FR-AMC); assay type: biochemical; conditions: for inhibition at 100 µM: compound 100 µM, mean of three measures
T1 construct: made in house; host or cells: Escherichia coli (strain M15)
Procedure: Pro-cruzain truncated at the C-terminus was expressed and purified using a previously described protocol ([Ferreira et al., 2019]). Escherichia coli (strain M15) cultures were grown overnight at 37°C and 200 rpm in Luria Bertani (LB) medium supplemented with ampicillin (100 μg/ml) and kanamycin (50 μg/ml). Next, the cultures were diluted 10-fold in fresh LB medium supplemented with 0.5 M NaCl, 0.2% glucose, 1 mM betaine, 0.5 M sorbitol, 100 μg/ml ampicillin, and 50 μg/ml kanamycin and incubated at 37°C and 200 rpm. At an optical density (OD600) of 0.9, the cultures were incubated at 47°C for 20 min to promote the expression of chaperones. Then, the expression of cruzain was induced by adding isopropyl β-D-thiogalactopyranoside (IPTG) to a final concentration of 0.2 mM, which was followed by overnight incubation of the cultures at 20°C and 200 rpm. Next, the cultures were centrifuged (5,000 rpm, 30 min, 4°C), and the cells were suspended in 50 ml of lysis buffer (300 mM NaCl, 50 mM Tris-HCl, and 1.6 mg/ml lysozyme, pH 8.0) per liter of culture and lysed by sonication (12 cycles of 30 s). This cell lysate was centrifuged (9,000 rpm, 30 min, 4°C), and the supernatant was collected. Cruzain was precipitated by incubation with 35% ammonium sulfate (2 h), and this suspension was centrifuged at 9,000 rpm for 30 min at 4°C. The precipitated cruzain was resuspended in lysis buffer, and the sample was dialyzed to eliminate ammonium sulfate. The soluble fraction of the dialysate was loaded on a Ni−NTA column (Qiagen, Hilden, Germany), and the contaminants were washed using washing buffer (300 mM NaCl, 50 mM Tris-HCl, and 10 mM imidazole, pH 8.0). Cruzain was eluted by applying an increasing imidazole gradient: 25, 50, 75, 100, and 250 mM. The fractions containing cruzain were pooled together and dialyzed against 1.5 L of 0.1 M acetate buffer, pH 5.5, and then concentrated to 0.5 mg/ml. Pro-cruzain was activated by incubation with activation buffer (100 mM sodium acetate, pH 5.5, 10 mM EDTA, 5 mM DTT, and 1 M NaCl) at 37°C. […] After activation, the enzyme was diluted 20-fold in binding buffer (20 mM sodium phosphate and 150 mM NaCl, pH 7.2) and added to thiopropyl Sepharose 6B resin (GE Healthcare Life Sciences, Pittsburgh, PA). After overnight incubation at 4°C, the resin was loaded on a column, and cruzain was eluted with binding buffer supplemented with 20 mM DTT. Fractions containing cruzain were pooled together and stored in 0.1 M sodium acetate, pH 5.5, at −80°C.
Cruzain activity was followed by monitoring the cleavage of the fluorogenic substrate Z-Phe-Arg-aminomethyl coumarin (Z-FR-AMC), as previously described ([Ferreira et al., 2019]), using 96-well flat-bottom black plates and wavelengths of 355 nm for excitation and 460 nm for emission. All cruzain assays were performed in 0.1 M sodium acetate buffer with 5 mM dithiothreitol (DTT) and 0.01% Triton X-100, pH 5.5. […] The cleavage of the substrate was monitored for 5 min, and the activity was calculated based on the initial reaction rates compared with the rate of a DMSO control at 30°C. The IC50 values were independently calculated by considering the rate measurements for at least six inhibitor concentrations, each evaluated in triplicate. To determine the mechanism of cruzain inhibition, eight concentrations of the substrate Z-FR-AMC and four concentrations of the inhibitor were employed, each in triplicate. Kinetic parameters were determined using the SigmaPlot (Systat Software Inc., Erkrath, Germany) enzyme kinetics module. Compounds were tested in two or three independent experiments. All enzyme assays were performed using varying Triton X-100 concentrations (0, 0.01, and 0.1%) ([Ferreira et al., 2009]). Compound concentrations were 100 μM in the single-dose percentage inhibition assays.

T1 sequence (P25779 123-337 limits assumed): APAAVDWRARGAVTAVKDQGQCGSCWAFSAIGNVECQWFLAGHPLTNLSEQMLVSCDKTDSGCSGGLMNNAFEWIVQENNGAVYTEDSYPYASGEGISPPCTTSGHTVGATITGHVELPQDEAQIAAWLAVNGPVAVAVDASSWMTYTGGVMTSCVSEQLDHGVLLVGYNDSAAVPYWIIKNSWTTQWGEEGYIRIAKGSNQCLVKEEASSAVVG

| SMILES | CLint (L/h/kg) Mouse [1] | CLint_u (L/h/kg) Mouse [1] | CLint_u (L/h/kg) Human [2] | fu [3] | CLint (L/h/kg) Human [2] | inhibition at 100 µM [4] | IC50 ([4]; 1.5 nM cruzain, 5.0 µM Z-FR-AMC, mean ± SD of 2–3 assays, read-out: IC50 (µM) against cruzain) |
| --- | --- | --- | --- | --- | --- | --- | --- |
| CC(=O)NCCc1nc2ccccc2n1CCOCc1ccccc1 [Compound 56] | 95.10 L/h/kg | 98.14 L/h/kg | 4.90 L/h/kg | 0.97 | 4.75 L/h/kg |  |  |
| Cc1ccccc1OCC(=O)NCCc1c[nH]c2ccccc12 [Compound 50] | 790.00 L/h/kg | 1,292.96 L/h/kg | 38.63 L/h/kg | 0.61 | 23.60 L/h/kg |  |  |
| Cc1cc(C)c(C#N)c(SCC(=O)NCCc2c[nH]c3ccccc23)n1 [Compound 60] | 485.00 L/h/kg | 608.53 L/h/kg | 194.48 L/h/kg | 0.79 | 155.00 L/h/kg |  |  |
| CC(=O)Nc1ccccc1OCC(=O)NCCc1nc2ccccc2[nH]1 [Compound 43] | 10.30 L/h/kg | 10.30 L/h/kg | 3.94 L/h/kg | 1.00 | 3.94 L/h/kg |  |  |
| COc1cc(OCC(=O)NCCc2nc3ccccc3[nH]2)ccc1[N+](=O)[O-] [Compound 16] |  |  |  |  |  | 62% |  |

Other lines, results leading:

| CLint (L/h/kg) Mouse [1] | CLint_u (L/h/kg) Mouse [1] | CLint_u (L/h/kg) Human [2] | fu [3] | CLint (L/h/kg) Human [2] | inhibition at 100 µM [4] | IC50 ([4]; 1.5 nM cruzain, 5.0 µM Z-FR-AMC, mean ± SD of 2–3 assays, read-out: IC50 (µM) against cruzain) | SMILES |
| --- | --- | --- | --- | --- | --- | --- | --- |
| 655.00 L/h/kg | 939.71 L/h/kg | 35.00 L/h/kg | 0.72 |  |  |  | O=C(COc1ccc2ccccc2c1O)NCCc1nc2ccccc2[nH]1 [Compound 47] |
| 500.00 L/h/kg | 2,793.30 L/h/kg | 404.47 L/h/kg | 0.18 | 72.40 L/h/kg |  |  | COc1ccc2[nH]c(CCNC(=O)COc3ccc4ccccc4c3Br)nc2c1 [Compound 53] |
| 35.90 L/h/kg | 39.06 L/h/kg | 1.94 L/h/kg | 0.91 | 1.78 L/h/kg |  |  | CC(=O)NCCc1nc2ccccc2n1CCOc1ccccc1 [Compound 55] |
| 407.00 L/h/kg |  | 2,122.45 L/h/kg | 0.02 | 41.60 L/h/kg |  |  | O=C(COc1ccc2ccccc2c1Br)NCCc1nc2cc(Cl)ccc2[nH]1 [Compound 52] |
| 331.00 L/h/kg |  | 5,186.72 L/h/kg | 0.02 | 125.00 L/h/kg |  |  | COc1cccc(C(=O)CCn2c(CCNC(=O)COc3ccc4ccccc4c3Br)nc3ccccc32)c1 [Compound 62] |
| 528.00 L/h/kg |  | 1,334.7 L/h/kg | 0.05 | 65.00 L/h/kg |  |  | Cc1ccc2[nH]c(CCNC(=O)COc3ccc4ccccc4c3Br)nc2c1 [Compound 54] |
| 50.10 L/h/kg | 2,609.38 L/h/kg | 2,104.17 L/h/kg | 0.02 | 40.40 L/h/kg |  |  | COc1ccc(C(=O)Cn2c(CCNC(=O)COc3ccc4ccccc4c3Br)nc3ccccc32)cc1 [Compound 63] |
|  |  |  |  |  | 92% | 8.3 ± 2.1 µM | COC(=O)c1cccc2cc(OCC(=O)NCCc3nc4ccccc4[nH]3)ccc12 [Compound 14] |
